Measured values published in patent publication US10174331B2, “Methods and compositions for nuclease-mediated targeted integration of transgenes” (Sangamo BioSciences, Inc., priority 2012, dated 2019).

Columns and labels:
[1] = test system: scutella of wheat cv. Bobwhite MPB26RH and cv. Clearfield Janz; assay: Basal tolerance to IMAZAMOX at callus induction stage; type: cell-based, Triticum aestivum
Method: A series of experiments were performed to determine optimal selection conditions for regenerating AHAS edited wheat plants. These experiments were based on testing the basal tolerance to IMAZAMOX™ of the donor wheat line cv. Bobwhite MPB26RH(S653/S653 genotype) at the callus induction, plant regeneration and rooting stages of an established wheat transformation system. Similar experiments were performed to determine the basal tolerance and resistance of cv. Clearfield Janz genotypes carrying the different doses of the S653N mutation; i.e., plants with N653/N653 and S653/S653 genotypes.
The basal tolerance of the donor wheat line cv. Bobwhite MPB26RH and basal resistance of cv. Clearfield Janz (N653/N653) genotype to IMAZAMOX® at the callus induction stage was determined as follows: Scutella of immature zygotic embryos from each wheat line were isolated as described previously and placed in 10 cm PETRI™ dishes containing CIM medium supplemented with 0, 50, 100, 200, 300, 400 and 500 nM IMAZAMOX® respectively. Twenty scutella were placed in each PETRI™ dish. A total of 60 scutella from each of the donor wheat line cv. Bobwhite MPB26RH and cv. […] After incubation at 24° C. in the dark for 4 weeks, the amount of somatic embryogenic callus formation (SEC) at each IMAZAMOX® concentration was recorded. […]

[2] = test system: wheat cv. Bobwhite MPB26RH and cv. Clearfield Janz; assay: Basal tolerance to IMAZAMOX at plant regeneration stage; type: in vivo, Triticum aestivum
Method: The basal tolerance of the donor wheat line cv. Bobwhite MPB26RH to IMAZAMOX® at the plant regeneration stage was determined as follows: Scutella of immature zygotic embryos from the donor wheat line were isolated as described previously and placed in 10 cm PETRI™ dishes containing CIM medium. Somatic embryogenic callus was allowed to form by incubating at 24° C. in the dark for 4 weeks. The SEC was transferred to 10 cm PETRI™ dishes containing DRM medium supplemented with 0, 100, 200, 300, 400, 500 and 1000 nM IMAZAMOX® respectively. Twenty CIM were placed in each PETRI™ dish. A total of 60 CIM were tested for basal tolerance response at each IMAZAMOX® concentration. After incubation for 2 weeks at 24° C. under a 16/8 (light/dark) hour photoperiod in a growth room, the regeneration response was recorded.
The basal tolerance of the cv. Clearfield Janz (S653/S653) genotype and basal resistance of the cv. Clearfield Janz (N653/N653) genotype to IMAZAMOX® at the plant regeneration stage was determined using a modified approach, as cv. […] Seed for each cv. Clearfield Janz genotype was germinated using the aseptic approach described above for producing wheat mesophyll protoplasts. […] After incubation for 3 weeks at 24° C. under a 16/8 (light/dark) hour photoperiod in a growth room, the growth response was recorded. […]

[3] = test system: scutella of wheat cv. Bobwhite MPB26RH; assay: Basal tolerance to sulfometuron methyl at callus induction stage; type: cell-based, Triticum aestivum; conditions: 100 nM, 4 weeks
Method: A series of experiments were performed to determine optimal selection conditions for regenerating wheat plants expressing the AHAS(P197S) mutation conferring tolerance to sulfonylurea class herbicides. These experiments were based on testing the basal tolerance of the wild-type donor wheat line cv. Bobwhite MPB26RH (P197/P197 genotype, which confers susceptibility to sulfonylureas) at the callus induction, plant regeneration and rooting stages of an established wheat transformation system. Similar experiments were performed to determine the basal tolerance of transgenic cv. Bobwhite MPB26RH events that had randomly integrated T-DNA expressing the AHAS(P197) mutation, which confers tolerance to sulfonylurea selection agents.
The basal tolerance of the wild-type donor wheat line to sulfometuron methyl at the callus induction stage was determined as follows: Scutella of immature zygotic embryos were isolated, as previously described, and placed in 10 cm PETRI™ dishes containing CIM medium supplemented with 0, 100, 500, 1000, 1500 and 2000 nM sulfometuron methyl, respectively. Twenty scutella were placed in each PETRI™ dish. A total of 60 scutella were tested at each sulfometuron methyl concentration. After incubation at 24° C. in the dark for 4 weeks, the amount of somatic embryogenic callus formation (SEC) at each sulfometuron methyl concentration was recorded. […]

[4] = test system: wheat cv. Bobwhite MPB26RH; assay: Basal tolerance to sulfometuron methyl at plant regeneration stage; type: in vivo, Triticum aestivum; conditions: wild-type cv. Bobwhite MPB26RH; 2000 nM; 2 weeks
Method: The basal tolerance of the wild-type donor wheat line to sulfometuron methyl at the plant regeneration stage was determined as follows: Scutella of immature zygotic embryos from the donor wheat line were isolated and placed in 10 cm PETRI™ dishes containing CIM medium. Somatic embryogenic callus was allowed to form by incubating at 24° C. in the dark for 4 weeks. The SEC was transferred to 10 cm PETRI™ dishes containing DRM medium supplemented with 0, 100, 500, 1000, 1500, 2000, 2500 and 3000 nM sulfometuron methyl, respectively. Twenty CIM were placed in each PETRI™ dish. A total of 60 CIM were tested for basal tolerance response at each sulfometuron methyl concentration. After incubation for 2 weeks at 24° C. under a 16/8 (light/dark) hour photoperiod in a growth room, the regeneration response was recorded.

[5] = test system: wheat cv. Bobwhite MPB26RH, wild-type and AHAS(P197S) transgenic events; assay: Basal tolerance to sulfometuron methyl at plant rooting stage; type: in vivo, Triticum aestivum; conditions: wild-type donor wheat line; concentrations higher than 400 nM; 3 weeks
Method: The basal tolerance of the wild-type donor wheat line to sulfometuron methyl at the plant rooting stage was determined as follows: Scutella of immature zygotic embryos were isolated and placed in 10 cm PETRI™ dishes containing CIM medium. Somatic embryogenic callus was allowed to form by incubating at 24° C. in the dark for 4 weeks. The SEC was transferred to 10 cm PETRI™ dishes containing DRM medium and incubated for 2 weeks at 24° C. under a 16/8 (light/dark) hour photoperiod to allow plant regeneration to take place. Regenerated plants were transferred to 10 cm PETRI™ dishes containing RM medium supplemented with 0, 100, 200, 250, 300, 400, 500, 1000 and 2000 nM sulfometuron methyl, respectively. Ten regenerated plants were placed in each PETRI™ dish. […] After incubation for 3 weeks at 24° C. under a 16/8 (light/dark) hour photoperiod in a growth room, the root formation response was recorded.
The basal tolerance of transgenic wheat events with randomly integrated, low-copy (≤3) T-DNA expressing the AHAS(P197S) mutation to sulfometuron methyl at the plant rooting stage was determined as follows: Four independent transgenic events were randomly selected and multiplied in vitro by sub-culturing on multiplication medium. […] After incubation for 2 weeks at 24° C. under a 16/8 (light/dark) hour photoperiod in a growth room, the root formation response was recorded.

Row | SMILES | reduction of SEC formation compared to untreated samples ([1]; cv. Bobwhite MPB26RH, 100 nM, 4 weeks) | callus formation relative to the untreated control ([1]; cv. Clearfield Janz (N653/N653), any concentration tested (50-500 nM)) | reduction of plant regeneration compared to untreated samples ([2]; cv. Bobwhite MPB26RH, 200 nM, 2 weeks) | concentration that had to be exceeded before plant growth was strongly suppressed ([2]; cv. Clearfield Janz (N653/N653), 3 weeks) | reduction of SEC formation compared to untreated samples [3] | reduction of plant regeneration compared to untreated samples [4] | root formation compared to untreated samples [5]
1 | COCc1cnc(C2=NC(C)(C(C)C)C(=O)N2)c(C(=O)O)c1 (stereo not shown) [IMAZAMOX] | about 70% | unaffected | about 80% | exceeded 2,000 nM |  |  | 
2 | COC(=O)c1ccccc1S(=O)(=O)NC(=O)Nc1nc(C)cc(C)n1 [sulfometuron methyl] |  |  |  |  | about 70% | about 80% | severely inhibited
